Read-outs that look alike come from different tables or passages of the source.
Legend:
[1] = tested on: Key Broadleaf Weed and Crop Species; experiment: Post-emergent Test II herbicidal activity (Table 5); format: in vivo; settings: post-emergence, 336 h, post-emergent, 14 days after application; for pest or weed control at 70 g/ha: application rate 70 g ai/ha; for pest or weed control at 140 g/ha: application rate 140 g ai/ha
Procedure, shortened: (§1)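 Spray rates: a highest rate plus ½×, ¼×, ⅛×, 1/16×, all delivered at 187 L/ha to plants at the first–second true leaf stage. Readout is a visual percent injury score at 14 d, where 100 means complete kill.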

[2] = tested on: Key Grass and Sedge Weeds as well as Grass Crops; experiment: Post-emergent Test II herbicidal activity (Table 6); format: in vivo; settings: post-emergence, 336 h; for pest or weed control at 70 g/ha: application rate 70 g ai/ha; for pest or weed control at 140 g/ha: application rate 140 g ai/ha
Procedure, shortened: as §1

[3] = ABUTH: velvetleaf (Abutilon theophrasti), read-out: Visual Growth Reduction (%) 14 Days After Application, ABUTH
[4] = AMARE: redroot pigweed (Amaranthus retroflexus), read-out: Visual Growth Reduction (%) 14 Days After Application, AMARE
[5] = BRSNN: oilseed-rape, canola (Brassica napus), read-out: Visual Growth Reduction (%) 14 Days After Application, BRSNN
[6] = CHEAL: lambsquarters (Chenopodium album), read-out: Visual Growth Reduction (%) 14 Days After Application, CHEAL
[7] = EPHHL: wild poinsettia (Euphorbia heterophylla), read-out: Visual Growth Reduction (%) 14 Days After Application, EPHHL
[8] = HELAN: sunflower (Helianthus annuus), read-out: Visual Growth Reduction (%) 14 Days After Application, HELAN
[9] = VIOTR: wild pansy (Viola tricolor), read-out: Visual Growth Reduction (%) 14 Days After Application, VIOTR
[10] = CYPES: yellow nutsedge (Cyperus esculentus), read-out: Visual Growth Reduction (%) 14 Days After Application, CYPES
[11] = DIGSA: crabgrass (Digitaria sanguinalis), read-out: Visual Growth Reduction (%) 14 Days After Application, DIGSA
[12] = ECHCG: barnyardgrass (Echinochloa crus-galli), read-out: Visual Growth Reduction (%) 14 Days After Application, ECHCG
[13] = ORYSA: rice (Oryza sativa), read-out: Visual Growth Reduction (%) 14 Days After Application, ORYSA
[14] = SETFA: giant foxtail (Setaria faberi), read-out: Visual Growth Reduction (%) 14 Days After Application, SETFA
[15] = SORVU: grain sorghum (Sorghum vulgare), read-out: Visual Growth Reduction (%) 14 Days After Application, SORVU
[16] = TRZSS (wheat, Triticum aestivum), read-out: Visual Growth Reduction (%) 14 Days After Application, TRZSS
[17] = ZEAMX: maize, corn (Zea mays), read-out: Visual Growth Reduction (%) 14 Days After Application, ZEAMX

Q: Which pest or weed control at 70 g/ha [1, 3] does the source give for Nc1cc(-c2cc(F)c(C(F)F)cc2F)nc(C(=O)O)c1Cl [Compound 174] here?
A: 75 to 84%

Q: What about the pest or weed control at 140 g/ha [1, 3] of the same compound?
A: 75 to 84%

Q: What about the pest or weed control at 70 g/ha [1, 4] of the same compound?
A: 95 to 100%

Q: What about the pest or weed control at 140 g/ha [1, 4] of the same compound?
A: 95 to 100%

Q: And the pest or weed control at 70 g/ha [1, 5]?
A: 95 to 100%

Q: What about the pest or weed control at 140 g/ha [1, 5] of the same compound?
A: 95 to 100%

Q: And the pest or weed control at 70 g/ha [1, 6]?
A: 95 to 100%

Q: What about the pest or weed control at 140 g/ha [1, 6] of the same compound?
A: 95 to 100%

Q: And the pest or weed control at 70 g/ha [1, 7]?
A: 95 to 100%

Q: And the pest or weed control at 140 g/ha [1, 7]?
A: 95 to 100%

Q: What about the pest or weed control at 70 g/ha [1, 8] of the same compound?
A: 95 to 100%

Q: What about the pest or weed control at 140 g/ha [1, 8] of the same compound?
A: 95 to 100%

Q: What about the pest or weed control at 70 g/ha [1, 9] of the same compound?
A: 45 to 59%

Q: What about the pest or weed control at 140 g/ha [1, 9] of the same compound?
A: 60 to 74%

Q: What about the melting point of the same compound?
A: 171.8 to 173.9 °C

Q: What about the pest or weed control at 70 g/ha [2, 10] of the same compound?
A: 60 to 74%

Q: What about the pest or weed control at 140 g/ha [2, 10] of the same compound?
A: 85 to 94%

Q: What about the pest or weed control at 70 g/ha [2, 11] of the same compound?
A: 0 to 29%

Q: And the pest or weed control at 140 g/ha [2, 11]?
A: 45 to 59%

Q: What about the pest or weed control at 70 g/ha [2, 12] of the same compound?
A: 60 to 74%

Q: And the pest or weed control at 140 g/ha [2, 12]?
A: 85 to 94%

Q: What about the pest or weed control at 70 g/ha [2, 13] of the same compound?
A: 0 to 29%

Q: And the pest or weed control at 140 g/ha [2, 13]?
A: 0 to 29%

Q: And the pest or weed control at 70 g/ha [2, 14]?
A: 0 to 29%

Q: What about the pest or weed control at 140 g/ha [2, 14] of the same compound?
A: 45 to 59%

Q: And the pest or weed control at 70 g/ha [2, 15]?
A: 0 to 29%

Q: What about the pest or weed control at 140 g/ha [2, 15] of the same compound?
A: 0 to 29%

Q: And the pest or weed control at 70 g/ha [2, 16]?
A: 0 to 29%

Q: And the pest or weed control at 140 g/ha [2, 16]?
A: 0 to 29%

Q: And the pest or weed control at 70 g/ha [2, 17]?
A: 0 to 29%

Q: What about the pest or weed control at 140 g/ha [2, 17] of the same compound?
A: 0 to 29%

Source: patent US9113629B2, “4-amino-6-(4-substituted-phenyl)-picolinates and 6-amino-2-(4-substituted-phenyl)-pyrimidine-4-carboxylates and their use as herbicides” (DOW AGROSCIENCES LLC, priority 2013, dated 2015)
